Structures are written as SMILES.

The experiment deals with recombinant NL4-3 virus (Renilla luciferase in nef, Gag P373S). Nature of the experiment: HIV cell culture assay (luciferase reporter virus in MT-2 cells). The format is cell-based. To be noted: NL43. How it is done: HIV cell culture assay—MT-2 cells and 293T cells were obtained from the NIH AIDS Research and Reference Reagent Program. MT-2 cells were propagated in RPMI 1640 media supplemented with 10% heat inactivated fetal bovine serum, […]. The 293T cells were propagated in DMEM media supplemented with 10% heat inactivated fetal bovine serum (FBS), 100 units/ml penicillin G and 100 μg/ml streptomycin. The proviral DNA clone of NL4-3 was obtained from the NIH AIDS Research and Reference Reagent Program. A recombinant NL4-3 virus, in which a section of the nef gene from NL4-3 was replaced with the Renilla luciferase gene, was used as a reference virus. In addition, residue Gag P373 was converted to P373S. Briefly, the recombinant virus was prepared by transfection of the altered proviral clone of NL4-3. Transfections were performed in 293T cells using LipofectAMINE PLUS from Invitrogen (Carlsbad, Calif.), according to manufacturer's instruction. The virus was titered in MT-2 cells using luciferase enzyme activity as a marker. Luciferase was quantitated using the Dual Luciferase kit from Promega (Madison, Wis.), with modifications to the manufacturer's protocol. The diluted Passive Lysis solution was pre-mixed with the re-suspended Luciferase Assay Reagent and the re-suspended Stop & Glo Substrate (2:1:1 ratio). Fifty (50) μL of the mixture was added to each aspirated well on assay plates and luciferase activity was measured immediately on a Wallac TriLux (Perkin-Elmer). Antiviral activities of inhibitors toward the recombinant virus were quantified by measuring luciferase activity in cells infected for 4-5 days with NLRluc recombinants in the presence serial dilutions of the inhibitor. Table 1 is the key for the data in Table 2.
On the technique in general: A reporter such as luciferase makes a cellular process visible.
The EC50 is the concentration needed to bring the measured effect to its halfway point. Turning to `C=C(C)[C@@H]1CC[C@]2(C(=O)O)CC[C@]3(C)[C@H](CC[C@@H]4[C@@]5(C)CC=C(c6ccc(S(C)(=O)=O)cc6)C(C)(C)[C@@H]5CC[C@]43C)[C@@H]12` [Example 4j, (1R,3aS,5aR,5bR,7aR,11aS,11bR,13aR,13bR)-5a,5b,8,8,11a-pentamethyl-9-(4-(methylsulfonyl)phenyl)-1-(prop-1-en-2-yl)-2,3,3a,4,5,5a,5b,6,7,7a,8,11,11a,11b,12,13,13a,13b-octadecahydro-1H-cyclopenta[a]chrysene-3a-carboxylic acid], the EC50 is more than 1000 nM.

For the compound `C=C(C)[C@@H]1CC[C@]2(C(=O)O)CC[C@]3(C)[C@H](CC[C@@H]4[C@@]5(C)CC=C(c6cccc(CCC(=O)O)c6)C(C)(C)[C@@H]5CC[C@]43C)[C@@H]12` [Example 4k, (1R,3aS,5aR,5bR,7aR,11aS,11bR,13aR,13bR)-9-(3-(2-carboxyethyl)phenyl)-5a,5b,8,8,11a-pentamethyl-1-(prop-1-en-2-yl)-2,3,3a,4,5,5a,5b,6,7,7a,8,11,11a,11b,12,13,13a,13b-octadecahydro-1H-cyclopenta[a]chrysene-3a-carboxylic acid], the EC50 is less than 1000 nM.

In the case of `C=C(C)[C@@H]1CC[C@]2(C(=O)O)CC[C@]3(C)[C@H](CC[C@@H]4[C@@]5(C)CC=C(c6ccccc6CCC(=O)O)C(C)(C)[C@@H]5CC[C@]43C)[C@@H]12` [Example 4l, (1R,3aS,5aR,5bR,7aR,11aS,11bR,13aR,13bR)-9-(2-(2-carboxyethyl)phenyl)-5a,5b,8,8,11a-pentamethyl-1-(prop-1-en-2-yl)-2,3,3a,4,5,5a,5b,6,7,7a,8,11,11a,11b,12,13,13a,13b-octadecahydro-1H-cyclopenta[a]chrysene-3a-carboxylic acid], the EC50 is more than 1000 nM.

For `C=C(C)[C@@H]1CC[C@]2(C(=O)O)CC[C@]3(C)[C@H](CC[C@@H]4[C@@]5(C)CC=C(c6ccc(-c7cnc8ccccc8c7C(=O)O)cc6)C(C)(C)[C@@H]5CC[C@]43C)[C@@H]12` [Example 4m, 3-(4-((1R,3aS,5aR,5bR,7aR,11aS,11bR,13aR,13bR)-3a-carboxy-5a,5b,8,8,11a-pentamethyl-1-(prop-1-en-2-yl)-2,3,3a,4,5,5a,5b,6,7,7a,8,11,11a,11b,12,13,13a,13b-octadecahydro-1H-cyclopenta[a]chrysen-9-yl)phenyl)quinoline-4-carboxylic acid], the EC50 is more than 1000 nM.

As for `C=C(C)[C@@H]1CC[C@]2(C(=O)O)CC[C@]3(C)[C@H](CC[C@@H]4[C@@]5(C)CC=C(c6ccc(C(=O)O)s6)C(C)(C)[C@@H]5CC[C@]43C)[C@@H]12` [Example 4n, 5-((1R,3aS,5aR,5bR,7aR,11aS,11bR,13aR,13bR)-3a-carboxy-5a,5b,8,8,11a-pentamethyl-1-(prop-1-en-2-yl)-2,3,3a,4,5,5a,5b,6,7,7a,8,11,11a,11b,12,13,13a,13b-octadecahydro-1H-cyclopenta[a]chrysen-9-yl)thiophene-2-carboxylic acid], the EC50 is less than 1000 nM.

Regarding `C=C(C)[C@@H]1CC[C@]2(C(=O)O)CC[C@]3(C)[C@H](CC[C@@H]4[C@@]5(C)CC=C(c6ccc(C(=O)O)c(Cl)c6)C(C)(C)[C@@H]5CC[C@]43C)[C@@H]12` [Example 4o, (1R,3aS,5aR,5bR,7aR,11aS,11bR,13aR,13bR)-9-(4-carboxy-3-chlorophenyl)-5a,5b,8,8,11a-pentamethyl-1-(prop-1-en-2-yl)-2,3,3a,4,5,5a,5b,6,7,7a,8,11,11a,11b,12,13,13a,13b-octadecahydro-1H-cyclopenta[a]chrysene-3a-carboxylic acid], the concentration giving a half-maximal response (EC50) is less than 1000 nM.

Turning to `C=C(C)[C@@H]1CC[C@]2(CO)CC[C@]3(C)[C@H](CC[C@@H]4[C@@]5(C)CC=C(c6ccc(C(=O)O)c(Cl)c6)C(C)(C)[C@@H]5CC[C@]43C)[C@@H]12` [Example 5a, 2-chloro-4-((1R,3aS,5aR,5bR,7aR,11aS,11bR,13bR)-3a-(hydroxymethyl)-5a,5b,8,8,11a-pentamethyl-1-(prop-1-en-2-yl)-2,3,3a,4,5,5a,5b,6,7,7a,8,11,11a,11b,12,13,13a,13b-octadecahydro-1H-cyclopenta[a]chrysen-9-yl)benzoic acid], the EC50 is less than 1000 nM.

As for `C=C(C)[C@@H]1CC[C@]2(CO)CC[C@]3(C)[C@H](CC[C@@H]4[C@@]5(C)CC=C(c6ccc(C(=O)O)cc6)C(C)(C)[C@@H]5CC[C@]43C)[C@@H]12` [Example 5b, 4-((1R,3aS,5aR,5bR,7aR,11aS,11bR,13bR)-3a-(hydroxymethyl)-5a,5b,8,8,11a-pentamethyl-1-(prop-1-en-2-yl)-2,3,3a,4,5,5a,5b,6,7,7a,8,11,11a,11b,12,13,13a,13b-octadecahydro-1H-cyclopenta[a]chrysen-9-yl)benzoic acid], the EC50 was less than 1000 nM.

For `C=C(C)[C@@H]1CC[C@]2(CO)CC[C@]3(C)[C@H](CC[C@@H]4[C@@]5(C)CC=C(c6ccc(C(=O)O)s6)C(C)(C)[C@@H]5CC[C@]43C)[C@@H]12` [Example 5c, 5-((1R,3aS,5aR,5bR,7aR,11aS,11bR,13bR)-3a-(hydroxymethyl)-5a,5b,8,8,11a-pentamethyl-1-(prop-1-en-2-yl)-2,3,3a,4,5,5a,5b,6,7,7a,8,11,11a,11b,12,13,13a,13b-octadecahydro-1H-cyclopenta[a]chrysen-9-yl)thiophene-2-carboxylic acid], the EC50 turned out to be 230 nM.

For `C=C(C)[C@@H]1CC[C@]2(CO)CC[C@]3(C)[C@H](CC[C@@H]4[C@@]5(C)CC=C(c6csc(C(=O)O)c6)C(C)(C)[C@@H]5CC[C@]43C)[C@@H]12` [Example 5d, 4-((1R,3aS,5aR,5bR,7aR,11aS,11bR,13bR)-3a-(hydroxymethyl)-5a,5b,8,8,11a-pentamethyl-1-(prop-1-en-2-yl)-2,3,3a,4,5,5a,5b,6,7,7a,8,11,11a,11b,12,13,13a,13b-octadecahydro-1H-cyclopenta[a]chrysen-9-yl)thiophene-2-carboxylic acid], the EC50 is less than 1000 nM.

With `C=C(C)[C@@H]1CC[C@]2(CO)CC[C@]3(C)[C@H](CC[C@@H]4[C@@]5(C)CC=C(c6ccc(O)nc6)C(C)(C)[C@@H]5CC[C@]43C)[C@@H]12` [Example 5e, 5-((1R,3aS,5aR,5bR,7aR,11aS,13aR,13bR)-3a-(hydroxymethyl)-5a,5b,8,8,11a-pentamethyl-1-(prop-1-en-2-yl)-2,3,3a,4,5,5a,5b,6,7,7a,8,11,11a,11b,12,13,13a,13b-octadecahydro-1H-cyclopenta[a]chrysen-9-yl)pyridin-2-ol], the EC50 is more than 1000 nM.

As for `C=C(C)[C@@H]1CC[C@]2(CO)CC[C@]3(C)[C@H](CC[C@@H]4[C@@]5(C)CC=C(c6ccc(O)c(F)c6)C(C)(C)[C@@H]5CC[C@]43C)[C@@H]12` [Example 5f, 2-fluoro-4-((1R,3aS,5aR,5bR,7aR,11aS,11bR,13aR,13bR)-3a-(hydroxymethyl)-5a,5b,8,8,11a-pentamethyl-1-(prop-1-en-2-yl)-2,3,3a,4,5,5a,5b,6,7,7a,8,11,11a,11b,12,13,13a,13b-octadecahydro-1H-cyclopenta[a]chrysen-9-yl)phenol], the EC50 is less than 1000 nM.

Take `C=C(C)[C@@H]1CC[C@]2(CO)CC[C@]3(C)[C@H](CC[C@@H]4[C@@]5(C)CC=C(c6ccc(O)c(Cl)c6)C(C)(C)[C@@H]5CC[C@]43C)[C@@H]12` [Example 5g, 2-chloro-4-((1R,3aS,5aR,5bR,7aR,11aS,11bR,13aR,13bR)-3a-(hydroxymethyl)-5a,5b,8,8,11a-pentamethyl-1-(prop-1-en-2-yl)-2,3,3a,4,5,5a,5b,6,7,7a,8,11,11a,11b,12,13,13a,13b-octadecahydro-1H-cyclopenta[a]chrysen-9-yl)phenol]: the EC50 was more than 1000 nM.

Consider `C=C(C)[C@@H]1CC[C@]2(CO)CC[C@]3(C)[C@H](CC[C@@H]4[C@@]5(C)CC=C(c6ccc(O)cc6C)C(C)(C)[C@@H]5CC[C@]43C)[C@@H]12` [Example 5h, 4-((1R,3aS,5aR,5bR,7aR,11aS,11bR,13aR,13bR)-3a-(hydroxymethyl)-5a,5b,8,8,11a-pentamethyl-1-(prop-1-en-2-yl)-2,3,3a,4,5,5a,5b,6,7,7a,8,11,11a,11b,12,13,13a,13b-octadecahydro-1H-cyclopenta[a]chrysen-9-yl)-3-methylphenol], for which the EC50 is more than 1000 nM.

Take `C=C(C)[C@@H]1CC[C@]2(CO)CC[C@]3(C)[C@H](CC[C@@H]4[C@@]5(C)CC=C(c6ccc(NS(C)(=O)=O)cc6)C(C)(C)[C@@H]5CC[C@]43C)[C@@H]12` [Example 5i, N-(4-((1R,3aS,5aR,5bR,7aR,11aS,11bR,13aR,13bR)-3a-(hydroxymethyl)-5a,5b,8,8,11a-pentamethyl-1-(prop-1-en-2-yl)-2,3,3a,4,5,5a,5b,6,7,7a,8,11,11a,11b,12,13,13a,13b-octadecahydro-1H-cyclopenta[a]chrysen-9-yl)phenyl)methanesulfonamide]: the EC50 is more than 1000 nM.

The record behind these values is patent US8754068B2, “Modified C-3 betulinic acid derivatives as HIV maturation inhibitors” (priority 2010, dated 2014).
